For assay [1], the system named is Male C57BL/6 mice. As to the kind of experiment: Cisplatin-induced nephrotoxicity in mice. It is filed as in vivo, mouse. Conditions: cisplatin 20 mg/kg i.p., FIG. 10. How it is done:
(§1) Male C57BL/6 mice were given a single intraperitoneal injection of 20 mg/kg of cisplatin. Twenty nanomoles of PACAP38 were given intraperitoneally 1 hour before the injection of cisplatin and additional doses were given at 24 and 48 hours after the initial dose. The control group of mice was injected intraperitoneally with the same volume of saline as for the injections of cisplatin and PACAP38 on the same schedule. The mice were euthanized 24 hours after the final injection of PACAP38. Each value represents the mean plus/minus the standard error of four determinations. ***p<0.001 and **p<0.01 compared to the group treated only with cisplatin.
as §1, with “PACAP38. TNF-α was extracted from one kidney of each mouse and quantified with an enzyme-linked immunosorbent assay.” for “PACAP38.”
Male C57BL/6 mice were given a single intraperitoneal injection of 20 mg/kg of cisplatin. Twenty nanomoles of PACAP38 were given intraperitoneally 1 hour before the injection of cisplatin and additional doses were given at 24 and 48 hours after the initial dose. The control group of mice were injected intraperitoneally with the same volume of saline as for the injections of cisplatin and PACAP38 on the same schedule. The mice were euthanized 24 hours after the final injection of PACAP38, and the kidneys were removed and fixed in 10% formalin. The fixed sections were stained with hematoxylin and eosin. The sections of the kidneys from control mice show intact renal tubular epithelial cells and well-preserved brush border membranes. The kidneys from mice treated with cisplatin had extensive tubular damage, tubular dilations, intratubular debris, and intratubular casts. […] Tubular damage was more pronounced in the outer cortex in the cisplatin treated mice. The photomicrographs on the left side were made at a lower magnification (×160) than the photomicrographs on the right side (×320). The results described in FIGS. 5, 6, 7, and 8 were from the same experiment.
as §1, with “six” for “four”
as §1, with “The cytoprotective effect of PACAP38 against cisplatin-induced nephrotoxicity was also seen in a common in vivo model. Male” for “Male”, “PACAP38.” for “PACAP38. Each value represents the mean plus/minus the standard error of four determinations. ***p<0.001 and **p<0.01 compared to the group treated only with cisplatin.”

Assay [2] concerns human erythroleukemia cells. Nature of the assay: Thalidomide-induced apoptotic cell death of erythroleukemia cells. It is filed as cell-based. Particulars: thalidomide 48 hours, FIG. 20. How it is done:
The human myeloid leukemia cells were cultured in RPMI 1640 medium supplemented with 10% non-inactivated fetal bovine serum. The effects of PACAP38, [D-Ser^2]PACAP38 and VIP on apoptotic cell death was assessed by the quantitative determination of cytoplasmic histone-associated DNA-fragmentation (mono- and oligonucleosomes) after exposure to thalidomide for 48 hours. Each value represents the mean plus/minus the standard deviation of four determinations. **p<0.01 and *p<0.05 compared to the thalidomide-treated (control) cells.

Assay [3] addresses T1, PAC1 receptor (Homo sapiens, UniProt P41586).
T1 sequence (P41586 21-468): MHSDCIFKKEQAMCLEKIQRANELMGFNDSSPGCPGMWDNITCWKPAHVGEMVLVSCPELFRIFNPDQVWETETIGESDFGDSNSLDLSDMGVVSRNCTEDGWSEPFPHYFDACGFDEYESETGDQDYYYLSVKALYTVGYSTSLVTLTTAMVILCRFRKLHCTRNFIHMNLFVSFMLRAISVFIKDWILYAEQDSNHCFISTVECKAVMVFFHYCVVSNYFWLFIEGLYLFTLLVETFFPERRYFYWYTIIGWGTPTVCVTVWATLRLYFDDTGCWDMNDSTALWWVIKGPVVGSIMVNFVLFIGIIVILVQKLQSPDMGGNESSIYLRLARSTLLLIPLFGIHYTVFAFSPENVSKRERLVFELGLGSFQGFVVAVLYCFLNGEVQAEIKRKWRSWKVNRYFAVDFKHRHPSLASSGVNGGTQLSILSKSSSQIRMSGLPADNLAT
Conditions: cited from earlier work.

Take VIP: the “relative potency as cytoprotectants against cisplatin-induced impairment of kidney function (serum creatinine)” value in assay [1] is “less potent”. In addition, in assay [2], the “effect on thalidomide-induced apoptotic cell death” value was “dose-dependent enhancement”. Further, the “affinity for the PAC1 receptor relative to PACAP” value in assay [3] is reported as 1,000 times less.

The values are drawn from patent US20110268789A1, “USE OF PITUITARY ADENYLATE CYCLASE-ACTIVATING POLYPEPTIDE (PACAP) AND PACAP ANALOGS AS ADJUNCTIVE TREATMENTS WITH ANTICANCER AGENTS” (priority 2008, published 2011).
